Test results: patent publication US20040248877A1, “Polycyclic diazodioxide-based Bcl-2 protein antagonists and use thereof” (priority 2003, published 2004)
Where two headings read alike, the source gives them in different places.

Key:
[1] = system: HL60, human leukemic cells expressing high Bcl-2 and low Bcl-XL levels; test: Acute cytotoxicity (apoptotic activity), Alamar Blue viability; assay type: cell-based
Method: (§1) The biological activity of the compounds provided herein were assessed in cellular system by the method similar to the one described by Amundson et al. (Amundson, S. A. et al, Cancer Research 2000, 60, 6101-6110), which is incorporated herein by reference in its entirety. The compounds were tested for acute cytotoxicity (apoptotic activity) using two human cancer cell lines expressing high levels of either Bcl-2 or Bcl-XL. HL60, human leukemic cells expressing high Bcl-2 and low Bcl-XL levels, and A549 human lung cells expressing low Bcl-2 and high Bcl-XL levels, were incubated with the compounds at concentrations between 0.5 and 1000 μg/mL for 4 hours at 37° C., 5% CO2. The number of viable cells were measured by mitochondrial transformation of Alamar Blue to a fluorescent dye. LC50 values for each test compound and controls are provided in the individual examples that follow.
(§2) The compounds provided herein were tested for acute cytoxicity (apoptotic activity) using two human cancer cell lines expressing high levels of either Bcl-2 or Bcl-XL. HL-60 cells expressing high Bcl-2 and low Bcl-XL levels, and A549 human lung cells expressing low Bcl-2 and high Bcl-XL levels (Amundson, S. A. et al. Cancer Research 2000, 60, 6101-6110) were incubated with the compounds at concentrations between […] for 4 hours at 37° C., 5% CO2. The number of viable cells were measured my mitochondrial transformation of Alamar Blue to a fluorescent dye. As negative controls, the compounds were tested against the cell lines with low levels of Bcl-2 expression, viz., MDA-453 cells (Enyedy, I. J. et al. J. Med. Chem. 2001, 44, 4313-4324). LC50 values for each compound and controls were determined.

[2] = system: A549 human lung cells expressing low Bcl-2 and high Bcl-XL levels; test: as above; assay type: cell-based
Method: as §1, §2

[3] = biological target: Bcl-XL (Homo sapiens, UniProt Q07817); conditions: cited from earlier work
[4] = system: cell; conditions: cell line not specified; cited from earlier work
[5] = system: Bcl-2 and Bcl XL; conditions: cited from earlier work
[6] = Homo sapiens, HL-60, 4 h, read-out: LC 50 (μM) HL-60
[7] = Homo sapiens, A549, 4 h, read-out: LC 50 (μM) A549
[8] = protein not specified, read-out: IC50 (FP)

Bcl-XL, sequence (Q07817 whole entry, species assumed): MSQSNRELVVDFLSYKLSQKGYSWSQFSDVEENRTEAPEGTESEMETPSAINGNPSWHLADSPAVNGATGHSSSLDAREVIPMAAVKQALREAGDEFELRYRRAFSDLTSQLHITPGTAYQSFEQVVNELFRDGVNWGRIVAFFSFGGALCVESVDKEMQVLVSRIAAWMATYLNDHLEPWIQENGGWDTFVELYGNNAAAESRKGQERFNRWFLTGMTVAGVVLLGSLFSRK

Work on `[O-]/[N+]1=N/c2ccc(Oc3ccc(C(F)(F)F)cn3)cc2CCc2cc(Oc3ccc(C(F)(F)F)cn3)ccc21` [compound 18] yielded a CC50 [1, 6] of over 200 µM and a CC50 [2, 7] of over 200 µM.
For `Cc1cc2c(C(C)C)c(O)c(O)c(C=O)c2c(O)c1-c1c(C)cc2c(C(C)C)c(O)c(O)c(C=O)c2c1O` [Compound 1, Gossypol], the IC50 [3] is listed as 0.4 µM and the IC50 [4] is listed as 1.5 µM.
In the case of `CCS(=O)(=O)c1ccc2c(c1)CCc1cc(S(=O)(=O)CC)ccc1/[N+]([O-])=N\2` [compound 21], the CC50 [1, 6] is reported as over 200 µM and the CC50 [2, 7] is reported as over 200 µM.
In the case of `CC(C)Cc1cc(-c2ccc(-c3ccc(OCC(=O)O)c(CC(C)C)c3)c(Cc3cccc4ccccc34)c2)ccc1CCC(=O)O` [Compound 7], the IC50 ([5]; Bcl-2 antagonist designed by molecular modeling, read-out: IC50 value) is listed as 0.114 µM, the CC50 [1, 6] is listed as over 200 µM and the CC50 [2, 7] is listed as over 200 µM.
`[O-]/[N+]1=N/c2ccc(Oc3ccc(C(F)(F)F)cn3)cc2CCc2ccccc21` [compound 19] gave a CC50 [1, 6] of over 200 µM and a CC50 [2, 7] of over 200 µM.
`[O-]/[N+]1=N/c2ccc(OC(F)F)cc2CCc2cc(OC(F)F)ccc21` [compound 16] gave a CC50 [1, 6] of over 200 µM and a CC50 [2, 7] of over 200 µM.
Compound `[O-][N+]1=[N+]([O-])c2ccc(OC(F)F)cc2CCc2cc(OC(F)F)ccc21` [Example 2, dibenzo[c,g][1,2]diazocine, 2,9-bis(difluoromethoxy)-11,12-dihydro-5,6-dioxide] has a CC50 [1] of 18.5 µM and a CC50 [2] of 298 µM.
`[O-][N+]1=[N+]([O-])c2ccc(OCC(F)(F)F)cc2CCc2cc(OCC(F)(F)F)ccc21` [Example 1, dibenzo[c,g][1,2]diazocine, 11,12-dihydro-2,9-bis(2,2,2-trifluoroethoxy)-, 5,6-dioxide] showed a CC50 ([1]; Homo sapiens, HL-60, 4 hours at 37° C., read-out: LC50 value in HL-60 cell line) of 26.1 µM and a CC50 ([2]; Homo sapiens, A549, 4 hours at 37° C., read-out: LC50 value in A549 cell line) of 80.9 µM.
For `CCCC[C@H]1C(=O)O[C@H](C)[C@H](NC(=O)c2cccc(NC=O)c2O)C(=O)O[C@@H](C)[C@@H]1OC(=O)CC(C)C` [Compound 2, Antimycin], the IC50 [5, 8] is given as 2.5 µM and the IC50 [4] is given as 1.2 µM.
In the case of `CCOC(=O)OC(C#N)C1C=C(N)Oc2ccc(Br)cc21` (stereo not shown) [Compound 4], the IC50 [5, 8] is listed as 9 µM, the IC50 [4] is listed as 18 µM and the CC50 [1, 6] is listed as over 200 µM. It also gave a CC50 [2, 7] of over 200 µM.
For `CC(C)C(C(=O)O)C1C(=O)/C(=C/c2ccc(Br)cc2)SC1=S` (stereo not shown) [Compound 5], the IC50 [5, 8] is listed as 2.4 µM, the IC50 [4] is listed as about 90 µM and the CC50 [1, 6] is listed as over 200 µM. The CC50 [2, 7] was over 200 µM.
In the case of `O=C(Nc1cc(S(=O)(=O)c2ccc(Cl)cc2)ccc1Cl)c1cc(Cl)cc(I)c1O` [Compound 6], the IC50 [5, 8] is listed as 3.3 µM, the IC50 [4] is listed as about 30 µM and the CC50 [1, 6] is listed as over 200 µM. For the same compound, the CC50 [2, 7] was over 200 µM.
In the case of `[O-]/[N+]1=N/c2ccc(F)cc2CCc2cc(F)ccc21` [compound 13], the CC50 [1, 6] is reported as over 200 µM and the CC50 [2, 7] is reported as over 200 µM.
Compound `[O-]/[N+]1=N/c2ccc(OCc3ccccc3)cc2CCc2cc(OCc3ccccc3)ccc21` [compound 15] has a CC50 [1, 6] of over 200 µM and a CC50 [2, 7] of over 200 µM.
Compound `[O-][n+]1nc2ccccc2c2ccccc21` [compound 9] has a CC50 [1, 6] of over 200 µM and a CC50 [2, 7] of over 200 µM.
